Where two headings read alike, the source gives them in different places.
Experiments:
[1] = tested on: Black nightshade (Solanum nigrum L.; SOLNI); conditions: Dicamba DMA-salt, Banvel, 16 DAT
Method: Black nightshade (Solanum nigrum L.; SOLNI) was grown in a growth chamber under 14 h of light, at 18/12 (±0.5) ° C. (day/night) temperature, and in 70/80 (±5)% (day/night) relative humidity. Light was provided by high-pressure mercury lamps and fluorescent tubes to give 250 pmol m^−2 s^−1 at leaf level. The plants were grown in 11-cm-diam plastic pots filled with a mixture of sand and humic potting soil (1:2 by volume). The pots were placed on subirrigation matting, which was wetted daily with a half-strength nutrient solution. After emergence, the seedlings were thinned to one plant per pot for the efficacy experiments. Black nightshade was treated at the four-leaf stage. The fresh weights of the plants were measured 16 days after treatment (16 DAT).
The treatment solutions were applied with an air-pressured laboratory track sprayer having 1.2-mm nozzles fitted with a perforated (0.6 mm) whirling pin and delivering 200 L/ha at 303 kPa.
The experiment was conducted with four replicates per experiment according to a completely randomized design.

[2] = 20° C., cited from earlier work
[3] = tested on: Wild oat (Avena fatua L.; AVEFA); assay: adjuvant for Fenoxaprop-P-ethyl test; format: in vivo; conditions: Puma EW, 21 DAT
Method: In this test the performance with Fenoxaprop-P-ethyl was looked at. Plant material. […] After emergence, the seedlings were thinned to four plants per pot for the efficacy experiments. The plants were treated at the three-leaf stage. The fresh weights of the plants were measured 21 days after treatment (21 DAT). […] The following herbicide was included in the treatment solutions: Fenoxaprop-P-ethyl, Puma EW formulation, 69 g a.i./L. […] Demineralized water was used as the carrier.

[4] = sub-optimal rate + N,N-bis(3-(dimethylamino)propyl)octanamide 0.25% (w/v)
[5] = sub-optimal rate, no adjuvant, average of four replicates

| SMILES | Fresh Weight SOLNI (g) Herbicide + Adjuvant [1, 4] [g] | Fresh weight SOLNI (g) Only herbicide [1, 5] [g] | log Kow ([2]; at pH 7) | Fresh Weight Wild Oat (g) Herbicide + Compound [3, 4] [g] | Fresh weight Wild Oat (g) Only herbicide [3, 5] [g] | log Kow ([2]; no pH given) |
| --- | --- | --- | --- | --- | --- | --- |
| COc1c(Cl)ccc(Cl)c1C(=O)O [Dicamba] | 6.7 | 10.8 | −1.9 | – | – | – |
| CCOC(=O)[C@@H](C)Oc1ccc(Oc2nc3ccc(Cl)cc3o2)cc1 [Fenoxaprop-P-ethyl] | – | – | – | 1.4 | 16.4 | 4.3 |
